Consider seven compounds from patent publication US7880007B2, “Bicyclic substituted phenyl piperidine modulators of muscarinic receptors” (Vertex Pharmaceuticals Incorporated, priority 2004, dated 2011).

Holding throughout (type): cell-based
One assay deals with T1, M1 muscarinic receptor (Homo sapiens, UniProt P11229).
T1 construct: expressed in transfected cells; host or cells: CHO (M1-CHO)
T1 sequence (P11229 1-460): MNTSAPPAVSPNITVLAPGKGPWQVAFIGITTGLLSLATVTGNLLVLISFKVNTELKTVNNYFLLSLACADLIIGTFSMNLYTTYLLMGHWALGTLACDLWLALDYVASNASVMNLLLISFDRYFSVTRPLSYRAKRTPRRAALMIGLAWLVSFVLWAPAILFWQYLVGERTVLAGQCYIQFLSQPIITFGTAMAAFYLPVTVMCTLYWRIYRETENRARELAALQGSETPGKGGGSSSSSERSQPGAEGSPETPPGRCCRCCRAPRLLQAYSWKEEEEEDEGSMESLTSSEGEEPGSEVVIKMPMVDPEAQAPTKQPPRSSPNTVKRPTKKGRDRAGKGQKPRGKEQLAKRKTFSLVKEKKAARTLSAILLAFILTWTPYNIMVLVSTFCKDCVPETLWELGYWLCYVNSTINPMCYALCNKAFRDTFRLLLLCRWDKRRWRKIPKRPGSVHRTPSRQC
The assay is described as follows: Functional mobilization of intracellular calcium (FLIPR), M1-CHO cells. Particulars: for M1 Activity: M1-CHO cells, calcium mobilization (FLIPR). Put shortly:
(§1)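 FLIPR fluorescence (ex 488, em 540 nm) recorded 60 sec after compound addition to dye-loaded CHO cells. Agonist mode: compound alone. Antagonist mode: 15 min compound pre-incubation, then carbachol at EC80, or co-application. Efficacy expressed as % of maximal carbachol response.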

A further assay addresses T2, M2 muscarinic receptor (Homo sapiens, UniProt P08172).
T2 construct: expressed in transfected cells; host or cells: CHO (M2-CHO)
T2 sequence (P08172 1-466): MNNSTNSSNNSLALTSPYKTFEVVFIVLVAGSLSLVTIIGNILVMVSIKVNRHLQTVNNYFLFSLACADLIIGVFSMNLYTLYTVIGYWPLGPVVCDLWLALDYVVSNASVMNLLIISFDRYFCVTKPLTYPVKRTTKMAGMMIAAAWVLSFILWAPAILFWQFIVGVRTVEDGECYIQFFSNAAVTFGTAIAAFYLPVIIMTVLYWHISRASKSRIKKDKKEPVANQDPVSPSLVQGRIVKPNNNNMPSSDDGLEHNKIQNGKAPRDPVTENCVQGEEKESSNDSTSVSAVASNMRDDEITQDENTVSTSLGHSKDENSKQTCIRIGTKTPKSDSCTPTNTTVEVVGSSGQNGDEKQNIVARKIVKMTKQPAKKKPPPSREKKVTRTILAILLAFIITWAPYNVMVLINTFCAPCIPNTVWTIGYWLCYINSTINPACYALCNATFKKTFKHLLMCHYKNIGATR
The assay is described as follows: Functional mobilization of intracellular calcium (FLIPR), M2-CHO cells. Particulars: for M2 Activity: M2-CHO cells, calcium mobilization (FLIPR). Put shortly: as §1
Background: A change in cytosolic calcium serves as a functional read-out for many receptors and channels.

Another assay addresses T3, M3 muscarinic receptor (Homo sapiens, UniProt P20309).
T3 construct: expressed in transfected cells; host or cells: CHO (M3-CHO)
The assay is described as follows: Functional mobilization of intracellular calcium (FLIPR), M3-CHO cells. Conditions: for M3 Activity: M3-CHO cells, calcium mobilization (FLIPR). How it is done: Functional Mobilization of Intracellular Calcium to Determine Muscarinic Receptor Activity:
CHO cells expressing muscarinic receptors (M1 to M5) are grown as monolayers in tissue culture flasks at 37° C. in a humidified atmosphere containing 5% CO2 and passaged every 3-5 days. The growth media is Dulbecco's modified eagles medium (DMEM, Gibco Cat #12430-054), containing 25 mM Hepes and supplemented with Fetal Bovine Serum (Hyclone, cat #SH30071.03), 0.1 mM of MEM non-essential amino acids (GIBCO, Cat #11140-050), 1 mM MEM Sodium Pyruvate (GIBCO Cat #11360-070) and 100 units/ml of Penicillin G and 100 μg/ml of Streptomycin (GIBCO Cat #15140-122). The recombinant muscarinic receptor cell lines are grown under antibiotic pressure with media containing 25 μg/ml zeocin and 500 μg/ml G418 (M1-CHO), 4 μg/ml puromycin, 50 μg/ml zeocin and 2.5 μg/ml blasticidin (M2 and M4-CHO) or 50 μg/ml zeocin and 4 μg/ml puromycin (M3 and M5-CHO).
Cells are harvested at 80-90% confluence using Versene (GIBCO Cat #15040-066), collected by centrifugation and seeded 18-24 hrs prior to running the calcium assay at a density of 5,000-10,000 cells/well in […], clear-bottomed 384-well plates (BD Biocoat, poly-D-lysine, Cat #356663). The day of the experiment, the cells are washed with a plate washer (Bioteck Instruments, ELX 405) using bath 1 buffer (140-mM NaCl, 4.5-mM KCl, 2-mM CaCl2, 1-mM MgCl2, 10-mM Hepes-Na, 10-mM Glucose, pH 7.4, with NaOH) containing 1 mM Probenecid. Next, the calcium dye Fluo-3 (25 μl/well of Fluo-3 AM at 4 μM, Molecular Probes F-1241, in Bath 1 buffer containing 1 mM Probenecid) is added to the 25 μl of Bath 1 remaining in each well after the plate wash and the dye is loaded at 37° C. in the tissue culture incubator for 60-90 min. The fluorescent dye is removed using the plate washer with Bath 1 containing 1 mM Probenecid, leaving 25 μl/well of this solution after the wash. Alternatively, cells can be loaded with the calcium indicator from Molecular Devices (Calcium 3 Assay Reagents, Cat #R7181) adding 5 μl of a 5× solution dye in Bath 1 containing 1 mM Probenecid (10 ml per dye flask cat #R7182 to generate a solution 20×) to 20 μl of the same buffer. After loading for 60 min, the experiment can be run without having to remove the dye.
Compounds are prepared at a 2× fold concentration in a 96-well plate (round bottom, Costar Corning cat #3656), by reconstituting the pre-spotted compounds in bath 1 containing 1 mM probenecid. The final concentration DMSO is 0.5%, and the amount of DMSO is normalized across the assay plate. To determine an agonist action of the compounds on muscarinic receptors, the reconstituted compounds are added (25 μl compound/well) to the cell assay plate (containing 25 μl/well) using the multi-channel robotic system of the FLIPR 3 Instrument (Molecular Devices, Sunnyvale, Calif.). To determine a functional inhibitory action of the compounds on muscarinic receptors, the reconstituted compounds are added (25 μl compound/well) to the assay plate and pre-incubated for 15 min prior to adding 25 μl of Carbachol at 3× the EC80 for each muscarinic subtype. Alternatively, the compounds can be co-applied simultaneously with the agonist. In both assay modes, the fluorescence is recorded for 60 sec (excitation wavelength is […] and emission wavelength 540 nm) using the FLIPR 3 instrument.
The potency, efficacy and selectivity of the muscarinic compounds were evaluated by screening the compound activity across the whole family (M1 to M5 cells). Compounds were also screened for activity on other proteins such as other GPCRs and ion channels to determine selectivity on M4 receptors.
Examples of activities and efficacies of the muscarinic compounds of formulae (I, Ia, Ib, and II) on modulating M1, M2, M3 and M4 receptors are shown below in Table 3. […]

The target of the next assay is T4, M4 muscarinic receptor (Homo sapiens, UniProt P08173).
T4 construct: expressed in transfected cells; host or cells: CHO (M4-CHO)
T4 sequence (P08173 1-479): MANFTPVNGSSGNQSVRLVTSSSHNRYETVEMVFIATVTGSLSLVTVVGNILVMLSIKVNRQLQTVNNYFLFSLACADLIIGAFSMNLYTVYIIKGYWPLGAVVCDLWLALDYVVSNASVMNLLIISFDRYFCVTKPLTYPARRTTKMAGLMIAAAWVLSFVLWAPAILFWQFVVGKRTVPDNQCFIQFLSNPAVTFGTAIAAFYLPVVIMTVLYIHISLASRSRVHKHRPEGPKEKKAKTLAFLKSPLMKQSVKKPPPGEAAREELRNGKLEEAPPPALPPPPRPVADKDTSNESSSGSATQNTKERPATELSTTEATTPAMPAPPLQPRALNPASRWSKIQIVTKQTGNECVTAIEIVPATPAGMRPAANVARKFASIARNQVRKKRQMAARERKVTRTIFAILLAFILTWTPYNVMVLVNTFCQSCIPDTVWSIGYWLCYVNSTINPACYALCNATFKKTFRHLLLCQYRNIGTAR
The assay is described as follows: Functional mobilization of intracellular calcium (FLIPR), M4-CHO cells. Particulars: for M4 Activity: M4-CHO cells, calcium mobilization (FLIPR). Put shortly: as §1

Where [1] appears, read: 100% efficacy = maximum response obtained with the Carbachol control.
Setting [2] is: 100% efficacy is the maximum response obtained with the Carbachol control.

Structures are written as SMILES.

T3 sequence (P20309 whole entry): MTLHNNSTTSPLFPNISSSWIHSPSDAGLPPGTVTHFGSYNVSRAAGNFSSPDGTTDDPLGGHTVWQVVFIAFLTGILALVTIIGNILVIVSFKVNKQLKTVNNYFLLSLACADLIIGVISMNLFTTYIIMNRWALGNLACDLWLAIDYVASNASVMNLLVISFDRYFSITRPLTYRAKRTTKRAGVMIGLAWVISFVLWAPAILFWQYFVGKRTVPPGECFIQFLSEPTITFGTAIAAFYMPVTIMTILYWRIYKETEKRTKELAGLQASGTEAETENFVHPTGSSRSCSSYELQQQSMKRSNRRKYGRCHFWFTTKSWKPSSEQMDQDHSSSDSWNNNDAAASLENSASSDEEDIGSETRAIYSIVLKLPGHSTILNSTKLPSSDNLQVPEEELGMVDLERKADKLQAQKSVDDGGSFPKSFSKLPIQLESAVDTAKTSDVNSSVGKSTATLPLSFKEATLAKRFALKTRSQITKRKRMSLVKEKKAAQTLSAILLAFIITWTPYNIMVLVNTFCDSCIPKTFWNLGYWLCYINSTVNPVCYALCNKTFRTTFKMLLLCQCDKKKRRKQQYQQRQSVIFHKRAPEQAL

Take `CC(=O)COc1ccccc1C1CCN(C2CC3CC[C@H]2C3)CC1` (stereo in doubt) [Compound 53, 1-(2-(1-((1S,2R,4R)-bicyclo[2.2.1]heptan-2-yl)piperidin-4-yl)phenoxy)propan-2-one]: the maximum response (Emax) (in general, the maximal effect, on the per cent scale that the assay sets) at M1 muscarinic receptor (setting [1]) is 25 to 100%; on M2 muscarinic receptor (setting [1]), 25 to 100%; at M3 muscarinic receptor (setting [1]), less than 25%; at M4 muscarinic receptor (setting [1]) it was 25 to 100%.
Consider `COc1ccc(C#Cc2ccccc2)cc1C1CCN(C2CC3CC[C@H]2C3)CC1` (stereo in doubt) [Compound 64, 1-((1S,2R,4R)-bicyclo[2.2.1]heptan-2-yl)-4-(2-methoxy-5-(phenyl-ethynyl)phenyl)piperidine], for which the maximum response (Emax) was 25 to 100% at M1 muscarinic receptor (setting [1]), 25 to 100% on M2 muscarinic receptor (setting [1]), less than 25% at M3 muscarinic receptor (setting [1]) and 25 to 100% at M4 muscarinic receptor (setting [1]). Also, the “M1 Activity” value on M1 muscarinic receptor is recorded as “+ (activity was measured to be greater than 5.0 μM)”. In addition, on M2 muscarinic receptor, the “M2 Activity” value is “+ (activity was measured to be greater than 5.0 μM)”. The “M3 Activity” value at M3 muscarinic receptor is listed as “+ (activity was measured to be greater than 5.0 μM)”. The “M4 Activity” value on M4 muscarinic receptor is “++ (activity was measured to be from 1.0 μM to 5.0 μM)”.
For `COc1ccc(C(=O)C(C)C)cc1C1CCN(C2CC3CC[C@H]2C3)CC1` (stereo in doubt) [Compound 222, 1-(3-(1-((1S,2R,4R)-bicyclo[2.2.1]heptan-2-yl)piperidin-4-yl)-4-methoxyphenyl)-2-methylpropan-1-one], the Emax on M1 muscarinic receptor (setting [1]) was 25 to 100%; at M2 muscarinic receptor (setting [1]) it was less than 25%; at M3 muscarinic receptor (setting [1]), less than 25%; at M4 muscarinic receptor (setting [1]), less than 25%.
For `Oc1ccccc1C1CCN(C2CC3CC[C@H]2C3)CC1` (stereo in doubt) [Compound 229, 2-(1-((1S,2R,4R)-bicyclo[2.2.1]heptan-2-yl)piperidin-4-yl)phenol], the maximum response (Emax) on M1 muscarinic receptor (setting [1]) is 25 to 100%; on M2 muscarinic receptor (setting [1]) it was less than 25%; at M3 muscarinic receptor (setting [1]), less than 25%; on M4 muscarinic receptor (setting [1]), 25 to 100%. In addition, the “M1 Activity” value on M1 muscarinic receptor is on record as “++ (activity was measured to be from 1.0 μM to 5.0 μM)”. Moreover, at M2 muscarinic receptor, the “M2 Activity” value was “+ (activity was measured to be greater than 5.0 μM)”. The “M3 Activity” value on M3 muscarinic receptor is recorded as “+ (activity was measured to be greater than 5.0 μM)”. Further, the “M4 Activity” value on M4 muscarinic receptor is listed as “++ (activity was measured to be from 1.0 μM to 5.0 μM)”.
Take `COc1ccccc1C1CCN(C2CC3CC[C@H]2C3)CC1` (stereo in doubt) [Compound 397, 1-((1S,2R,4R)-bicyclo[2.2.1]heptan-2-yl)-4-(2-methoxyphenyl)piperidine]: the Emax at M1 muscarinic receptor (setting [2]) was 25 to 100%; at M2 muscarinic receptor (setting [2]), less than 25%; at M3 muscarinic receptor (setting [2]), less than 25%; on M4 muscarinic receptor (setting [2]), 25 to 100%. The “M1 Activity” value at M1 muscarinic receptor is recorded as “++ (activity was measured to be from 1.0 μM to 5.0 μM)”. Moreover, the “M2 Activity” value on M2 muscarinic receptor is listed as “+ (activity was measured to be greater than 5.0 μM)”. Moreover, the “M3 Activity” value on M3 muscarinic receptor is on record as “+ (activity was measured to be greater than 5.0 μM)”. The “M4 Activity” value on M4 muscarinic receptor is on record as “+++ (activity was measured to be less than 1.0 μM)”.
As to `COc1ccccc1C1CCN(CC2CCCOC2)CC1` (stereo not drawn) [Compound 2], the maximal effect (Emax) was 25 to 100% on M1 muscarinic receptor (setting [1]), less than 25% on M2 muscarinic receptor (setting [1]), less than 25% at M3 muscarinic receptor (setting [1]) and 25 to 100% on M4 muscarinic receptor (setting [1]). Further, the “M1 Activity” value on M1 muscarinic receptor is listed as “+ (activity was measured to be greater than 5.0 μM)”. Besides, the “M2 Activity” value at M2 muscarinic receptor is on record as “+ (activity was measured to be greater than 5.0 μM)”. Further, on M3 muscarinic receptor, the “M3 Activity” value was “+ (activity was measured to be greater than 5.0 μM)”. The “M4 Activity” value at M4 muscarinic receptor is on record as “++ (activity was measured to be from 1.0 μM to 5.0 μM)”.
Turning to `COc1ccc(C(=O)C2CC2)cc1C1CCN([C@H]2C[C@H]3CC[C@H]2C3)CC1` [Compound 3], the Emax at M1 muscarinic receptor (setting [1]), on M2 muscarinic receptor (setting [1]), on M3 muscarinic receptor (setting [1]) and on M4 muscarinic receptor (setting [1]) was less than 25% throughout. Besides, the “M1 Activity” value on M1 muscarinic receptor is recorded as “+ (activity was measured to be greater than 5.0 μM)”. For the same compound, the “M2 Activity” value at M2 muscarinic receptor is recorded as “+ (activity was measured to be greater than 5.0 μM)”. On M3 muscarinic receptor, the “M3 Activity” value is “+ (activity was measured to be greater than 5.0 μM)”. Also, the “M4 Activity” value on M4 muscarinic receptor is “+ (activity was measured to be greater than 5.0 μM)”.
